Measured values published in patent publication US8071551B2, “Methods and compositions for treating diabetes” (BioHolding, Inc., priority 1999, dated 2011).

Key:
[1] = test system: RCG Neuron (rat cerebral granule) cells; test: Apoptosis induced by depletion of serum in RCG neuron cells (Hoechst 33258 staining, fluorescence microscope); type: cell-based; settings: BME without serum, 10 hours, Hoechst dye 33258
Method: RCG neuronal cells are seeded into cell culture dishes in 400 μl cell culture medium (Eagle's basal medium, BME) containing 10% (v/v) FBS. At day two the now conditioned medium is removed and the cells are treated for 10 hours as follows:
Then the medium is replaced with 4% (w/v) paraformaldehyde, incubated for 15 minutes at room temperature, and the cells stained with Hoechst dye 33258 (8 μg/ml) for 15 minutes at room temperature. The apoptosis in the cells is evaluated using a fluorescence microscope by an evaluator blinded to the method of treatment.

[2] = test system: Primary rat brain granule cells; test: Apoptosis associated with serum depletion in primary rat brain granule cells; type: cell-based; settings: α1-antitrypsin 3.0 mg/ml, one hour pretreatment, medium devoid of fetal bovine serum, 24 hours of culture
Method: Primary rat brain granule cells are pretreated for one hour in the absence or presence of α1-antitrypsin (3.0 mg/ml), followed by replacement of the cell culture medium with either control medium containing 10% (vol/vol) fetal bovine serum, medium devoid of fetal bovine serum, or medium devoid of fetal bovine serum but containing α1-antitrypsin.

## lyophilized α1-antitrypsin: lyophilized preparation of the serine protease inhibitor α1-antitrypsin
[1]; lyophilized AAT 50 μM
  apoptosis induced by depletion of serum: blocked

## Cc1cccc(Cc2nnc(C(=O)[C@@H](NC(=O)[C@@H]3CCCN3C(=O)[C@@H](NC(=O)OCc3ccccc3)C(C)C)C(C)C)o2)c1 [CE-2072, benzyloxcarbonyl-L-valyl-N-[1-(2-[5-(3-methylbenzyl)-1,3,4-oxadiazolyl]carbonyl)-2-(S)-Methylpropyl]-L-prolinamide, reference compound]
[1]; CE-2072 60 μM in DMSO
  apoptosis induced by depletion of serum: blocked

## α1-Antitrypsin: serine protease inhibitor α1-antitrypsin
[2]
  apoptosis associated with serum depletion: completely reverses
